The target of this assay is T1, hCRTH2 receptor (Homo sapiens, UniProt Q9Y5Y4).
T1 construct: expressed in transfected cells; host or cells: HEK293
T1 sequence (Q9Y5Y4 1-395): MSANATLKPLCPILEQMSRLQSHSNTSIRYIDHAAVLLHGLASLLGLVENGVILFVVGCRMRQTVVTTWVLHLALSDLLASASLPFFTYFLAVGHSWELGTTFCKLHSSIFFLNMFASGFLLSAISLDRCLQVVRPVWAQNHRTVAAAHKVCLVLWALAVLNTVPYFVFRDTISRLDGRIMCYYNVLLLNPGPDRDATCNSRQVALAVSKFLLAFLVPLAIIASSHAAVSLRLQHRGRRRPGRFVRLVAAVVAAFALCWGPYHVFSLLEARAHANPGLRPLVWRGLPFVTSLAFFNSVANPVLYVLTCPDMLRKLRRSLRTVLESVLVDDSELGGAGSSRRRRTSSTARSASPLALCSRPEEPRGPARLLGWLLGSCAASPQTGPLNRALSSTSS
The assay is described as follows: Radioligand displacement assay (3H-PGD2) on hCRTH2 receptor membranes. The format is binding. The settings on record: antagonistic activity. Background: Displacement assays read how much labelled ligand stays bound in the presence of the test substance.

The mark [1] stands for this setting: 3H-PGD2 radioligand displacement, HEK293-hCRTH2 membranes.
Setting [2] is: 3H-PGD2 displacement on HEK293-hCRTH2 membrane fragments.

Under setting [1], `O=C(O)COc1ccc(Cl)cc1C1c2ccccc2CN1C(=O)C1CC1c1cccc(Cl)c1` (stereo not drawn) [Example 524, (4-Chloro-2-{2-trans-[2-(3-chloro-phenyl)-cyclopropanecarbonyl]-2,3-dihydro-1H-isoindol-1-yl}-phenoxy)-acetic acid] yielded an IC50 of 81.3 nM.
The same measure, in the same setting: then `O=C(O)COc1ccc(Cl)cc1C1c2ccccc2CCN1C(=O)COc1cc(Cl)nc(Cl)c1` (racemic) [Example 473], with 650 nM; and `O=C(O)COc1ccc(Cl)cc1C1c2ccccc2CCN1C(=O)COc1cccc(Cl)c1` (racemic) [Example 413], with 70.5 nM.
The compound `COc1cc2c(cc1OC)C(c1cc(F)ccc1OCC(=O)O)N(C(=O)OCc1ccccc1)CC2` (racemic) [Example 36, (±)-1-(2-Carboxymethoxy-5-fluoro-phenyl)-6,7-dimethoxy-3,4-dihydro-1H-isoquinoline-2-carboxylic acid benzyl ester] returned an IC50 under setting [2] of 57.1 nM.
Consider `Cc1cc(COC(=O)N2CCc3cc(F)ccc3[C@H]2c2cc(Cl)ccc2OCC(=O)O)on1` [Example 330, (S)-1-(2-Carboxymethoxy-5-chloro-phenyl)-6-fluoro-3,4-dihydro-1H-isoquinoline-2-carboxylic acid 3-methyl-isoxazol-5-ylmethyl ester], for which the IC50 under setting [1] was found to be 10.6 nM.
`Cc1ccc(COCC(=O)N2CCc3ccccc3C2c2cc(F)ccc2OCC(=O)O)cc1` (racemic) [Example 194] returned an IC50 under setting [2] of 90.2 nM.
Consider `CC(C)[C@@H]1C[C@H]1C(=O)N1CCc2ccccc2[C@H]1c1cc(Cl)ccc1OCC(=O)O` (single isomer, unassigned) [Example 465], for which the IC50 under setting [1] is 53.5 nM. In other words, the double-digit nanomolar range.
Compound `O=C(O)COc1ccc(Cl)cc1[C@@H]1c2ccccc2CCN1C(=O)[C@@H]1C[C@H]1c1cccc(Cl)c1` [Example 564, (4-Chloro-2-{(S)-2-[(1R,2R)-2-(3-chloro-phenyl)-cyclopropanecarbonyl]-1,2,3,4-tetrahydro-isoquinolin-1-yl}-phenoxy)-acetic acid] returned an IC50 (radioligand displacement (3H-PGD2), hCRTH2 receptor membranes) of 4.29 nM.
`COc1cccc2c1ccn2CCC(=O)N1CCc2ccccc2C1c1cc(Cl)ccc1OCC(=O)O` (racemic) [Example 382] displayed an IC50 under setting [1] of 20.7 nM.
Under setting [2], `O=C(O)COc1ccc(F)cc1C1c2cccc(C(F)(F)F)c2CCN1C(=O)OCc1ccccc1` (racemic) [Example 12, (±)-1-(2-Carboxymethoxy-5-fluoro-phenyl)-5-trifluoromethyl-3,4-dihydro-1H-isoquinoline-2-carboxylic acid benzyl ester] registered an IC50 of 4.59 nM.
Compound `Cc1nn(CCC(=O)N2Cc3ccccc3C2c2cc(Cl)ccc2OCC(=O)O)c2cc(F)ccc12` (single isomer, unassigned) [Example 531, (4-Chloro-2-{2-[3-(6-fluoro-3-methyl-indazol-1-yl)-propionyl]-2,3-dihydro-1H-isoindol-1-yl}-phenoxy)-acetic acid] showed an IC50 under setting [1] of 30.9 nM.
Consider `Cc1ccccc1COCC(=O)N1CCc2ccccc2C1c1cc(F)ccc1OCC(=O)O` (racemic) [Example 192], for which the IC50 under setting [2] came to 11.1 nM.
Under setting [1], `CCn1nc(C)cc1CCOC(=O)N1CCc2cc(F)ccc2[C@H]1c1cc(Cl)ccc1OCC(=O)O` [Example 339, (S)-1-(2-Carboxymethoxy-5-chloro-phenyl)-6-fluoro-3,4-dihydro-1H-isoquinoline-2-carboxylic acid 2-(2-ethyl-5-methyl-2H-pyrazol-3-yl)-ethyl ester] came in with an IC50 of 11.5 nM.
Turning to `O=C(O)COc1ccc(Cl)cc1[C@@H]1c2ccccc2CCN1C(=O)OCc1ccccc1` [Example 26, (S)-1-(2-Carboxymethoxy-5-chloro-phenyl)-3,4-dihydro-1H-isoquinoline-2-carboxylic acid benzyl ester], the IC50 under setting [2] came to 4.52 nM.
`Cc1ncsc1CCOC(=O)N1CCc2cc(F)ccc2[C@H]1c1cc(Cl)ccc1OCC(=O)O` [Example 325, (S)-1-(2-Carboxymethoxy-5-chloro-phenyl)-6-fluoro-3,4-dihydro-1H-isoquinoline-2-carboxylic acid 2-(4-methyl-thiazol-5-yl)-ethyl ester] returned an IC50 under setting [1] of 21.3 nM.
Under setting [2], `O=C(O)COc1ccc(Cl)cc1C1c2ccccc2CCN1C(=O)CCCc1ccc(F)cc1` (racemic) [Example 103, (±)-(4-Chloro-2-{2-[4-(4-fluoro-phenyl)-butyryl]-1,2,3,4-tetrahydro-isoquinolin-1-yl}-phenoxy)-acetic acid] showed an IC50 of 11.2 nM. This lies in the double-digit nanomolar range.
On to `O=C(O)COc1ccc(Cl)cc1C1c2ccccc2CN1C(=O)CCN1CCc2ccccc21` (racemic) [Example 514], for which the IC50 under setting [1] turned out to be 38.8 nM.
Regarding `O=C(O)COc1ccc(F)cc1C1c2ccccc2CCN1C(=O)CCCc1ccccc1` (racemic) [Example 127, (±)-{4-Fluoro-2-[2-(4-phenyl-butyryl)-1,2,3,4-tetrahydro-isoquinolin-1-yl]-phenoxy}-acetic acid], the IC50 under setting [2] was 29 nM.
`O=C(O)COc1ccc(Cl)cc1C1c2ccccc2CCN1C(=O)CN1Cc2ccccc2C1` (racemic) [Example 444]: the IC50 under setting [1] was determined as 667 nM.
For the compound `O=C(O)COc1ccc(Cl)cc1[C@@H]1c2ccc(F)c(F)c2CCN1C(=O)OCc1cnccn1` [Example 308, (S)-1-(2-Carboxymethoxy-5-chloro-phenyl)-5,6-difluoro-3,4-dihydro-1H-isoquinoline-2-carboxylic acid pyrazin-2-ylmethyl ester], the IC50 under setting [1] is 1.69 nM.
In turn, `O=C(O)COc1ccc(Cl)cc1C1c2ccccc2CCN1C(=O)CNc1ccccc1` (racemic) [Example 443] gave an IC50 under setting [1] of 855 nM.
Turning to `Cn1cc(CCC(=O)N2CCc3ccccc3C2c2cc(F)ccc2OCC(=O)O)c2ccccc21` (racemic) [Example 66, (±)-(4-Fluoro-2-{2-[3-(1-methyl-1H-indol-3-yl)-propionyl]-1,2,3,4-tetrahydro-isoquinolin-1-yl}-phenoxy)-acetic acid], under setting [2], the IC50 is 27.5 nM.
On the same count and under the same terms, then `O=C(O)COc1ccc(F)cc1C1c2ccccc2CCN1C(=O)Cc1ccc2ccccc2c1` (racemic) [Example 135, (±)-{4-Fluoro-2-[2-(2-naphthalen-2-yl-acetyl)-1,2,3,4-tetrahydro-isoquinolin-1-yl]-phenoxy}-acetic acid], with 42.2 nM.
With `Cc1nn(CCC(=O)N2CCc3cc(F)ccc3[C@H]2c2cc(Cl)ccc2OCC(=O)O)c2ccccc12` [Example 397, (4-Chloro-2-{(S)-6-fluoro-2-[3-(3-methyl-indazol-1-yl)-propionyl]-1,2,3,4-tetrahydro-isoquinolin-1-yl}-phenoxy)-acetic acid], under setting [1], the half-inhibitory concentration (IC50) is 32.1 nM.
The compound `O=C(O)COc1ccc(Cl)cc1C1c2ccccc2CN1C(=O)OCc1ccccc1` (racemic) [Example 230] showed an IC50 under setting [2] of 12.8 nM.
As to `Cc1ccc2ccn(CCC(=O)N3CCc4ccccc4C3c3cc(Cl)ccc3OCC(=O)O)c2c1` (racemic) [Example 384], the IC50 under setting [1] was found to be 14.8 nM.
`COc1ccccc1COC(=O)N1CCc2ccccc2C1c1cc(Cl)ccc1OCC(=O)O` (racemic) [Example 233] gave an IC50 under setting [2] of 4.55 nM. In other words, the single-digit nanomolar range.
The compound `O=C(O)COc1ccc(F)cc1C1c2ccccc2CCN1C(=O)COCc1ccccc1Cl` (racemic) [Example 150] gave an IC50 under setting [2] of 6.16 nM.
Turning to `O=C(O)COc1ccc(Cl)cc1C1c2ccccc2CN1C(=O)CCn1ncc2c(Cl)cccc21` (stereo not shown) [Example 550], the IC50 under setting [1] came out at 240 nM.
For `Cc1nn(CCC(=O)N2Cc3ccccc3C2c2cc(Cl)ccc2OCC(=O)O)c2cccc(F)c12` (single isomer, unassigned) [Example 538, (4-Chloro-2-{2-[3-(4-fluoro-3-methyl-indazol-1-yl)-propionyl]-2,3-dihydro-1H-isoindol-1-yl}-phenoxy)-acetic acid], the IC50 under setting [1] was determined as 704 nM.
Turning to `CCCCOC(=O)N1CCc2ccccc2C1c1cc(F)ccc1OCC(=O)O` (racemic) [Example 167], under setting [2], the IC50 came to 42 nM. In other words, the double-digit nanomolar range.
The same measure, in the same setting: then `COc1cccc(COC(=O)N2CCc3ccccc3C2c2cc(Cl)ccc2OCC(=O)O)c1` (racemic) [Example 237], with 4.02 nM.
Consider `O=C(O)COc1ccc(Cl)cc1[C@@H]1c2ccccc2CCN1C(=O)OCn1ncc2ccccc21` [Example 297, (S)-1-(2-Carboxymethoxy-5-chloro-phenyl)-3,4-dihydro-1H-isoquinoline-2-carboxylic acid indazol-1-ylmethyl ester], for which the IC50 under setting [1] came out at 1.06 nM.
For `Cc1ccccc1CCC(=O)N1CCc2c(F)cccc2C1c1cc(Cl)ccc1OCC(=O)O` (racemic) [Example 118, (±)-{4-Chloro-2-[5-fluoro-2-(3-o-tolyl-propionyl)-1,2,3,4-tetrahydro-isoquinolin-1-yl]-phenoxy}-acetic acid], the IC50 under setting [2] turned out to be 95.4 nM.
Under setting [1], `O=C(O)COc1ccc(Cl)cc1C1c2ccccc2CCN1C(=O)CCn1ncc2ccccc21` (racemic) [Example 448] displayed an IC50 of 35.4 nM.
`COc1ccccc1CCCC(=O)N1CCc2ccccc2C1c1cc(F)ccc1OCC(=O)O` (racemic) [Example 149, (±)-(4-Fluoro-2-{2-[4-(2-methoxy-phenyl)-butyryl]-1,2,3,4-tetrahydro-isoquinolin-1-yl}-phenoxy)-acetic acid] gave an IC50 under setting [2] of 42.7 nM.
For `Cc1ncsc1CCOC(=O)N1CCc2ccccc2[C@H]1c1cc(Cl)ccc1OCC(=O)O` [Example 274, (S)-1-(2-Carboxymethoxy-5-chloro-phenyl)-3,4-dihydro-1H-isoquinoline-2-carboxylic acid 2-(4-methyl-thiazol-5-yl)-ethyl ester], the IC50 under setting [2] stood at 2.42 nM.

One may read the IC50 as the point on the concentration scale where inhibition reaches its midpoint.
